Experiments:
[1] = system: HER3-ss+4aa/Gaussia Luciferase; experiment: Dox-Induced Her3-ss-Gluc Assay; assay type: cell-based; conditions: 24 hr Dox induction; 293FRT/TO cells; mean; read-out: 24 hr Dox Inducible Her3(ss + 4)Gluc 293FRT/TO: Mean IC50
In short: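 Flp-In 293 T-REx cells, stable HER3-ss+4aa/Gaussia luciferase insert, hygromycin/blasticidin selected; plated day before; compound in DMSO/media + doxycycline; 37° C., 5% CO2.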

[2] = Liver Microsome Stability Assay (human); conditions: human liver microsomes, with NADPH, 1.0 uM compound
Method: (§1) Stability of a compound was assessed in the presence of liver microsomes from various sources—mouse, rat, monkey and human liver microsomes. 1.0 uM compound, 0.4% DMSO in 0.1 M Potassium Phosphate with 1.0 mg/mL liver microsomes, were incubated at 37° C. with or without 1 mM NADPH. The samples were quenched at 0, and 30 minutes.

[3] = system: IL-2-FL/Gaussia Luciferase; experiment: Dox Induced IL2-FL-Gluc Assay; assay type: cell-based; conditions: for IC50: 24 hr Dox induction, 293FRT/TO cells, mean, read-out: 24 hr Dox Inducible IL2FLGluc 293FRT/TO: Mean IC50; for 24 hr Dox Inducible IL2FLGluc 293FRT/TO: IL2/PD1: ratio of IL2FLGluc IC50 to PD1ssGluc IC50, '<=>' given where both are I.A.
In short: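 Stable Flp-In 293 T-REx line, Tet-regulated IL-2 (aa 1-153)–Gaussia luciferase fusion; hygromycin/blasticidin selected. Plated day -1; compound + doxycycline added next day; 37° C, 5% CO2.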

[4] = Liver Microsome Stability Assay (mouse); conditions: mouse liver microsomes, with NADPH, 1.0 uM compound
Method: as §1

[5] = system: multiple myeloma cell line U266B1; experiment: U266 Cell Viability Assay; assay type: cell-based, human; conditions: Homo sapiens, U-266, 48 h, U266B1 cells, Celltiter-Glo
In short: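 Luminescent ATP read-out (CellTiter-Glo) after 48 h compound exposure at 37° C., 5% CO2; cells maintained in RPMI 1640/10% FBS/2 mM glutamine/pen-strep, compounds diluted in DMSO/media.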

[6] = system: TNFα-FL/Gaussia Luciferase; experiment: Dox Induced TNFα-FL-Gluc Assay; assay type: cell-based; conditions: for IC50: 24 hr Dox induction, 293FRT/TO cells, mean, read-out: 24 hr Dox Inducible TNFaFLGluc 293FRT/TO: Mean IC50; for 24 hr Dox Inducible TNFaFLGluc 293FRT/TO: TNF/PD1: ratio of TNFaFLGluc IC50 to PD1ssGluc IC50, '<=>' given where both are I.A.
In short: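 Cell line: stable Flp-In 293 T-REx, TNFα-FL(1-233)-Gaussia luciferase fusion, T-REx-inducible. Plated day -1; compounds in DMSO/media + doxycycline, 37 °C, 5% CO2. Undefined stereocentres = mixture tested.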

[7] = system: multiple myeloma cell line NCI-H929; experiment: H929 Cell Viability Assay; assay type: cell-based, human; conditions: Homo sapiens, NCI-H929, 48 h, NCI-H929 cells, Celltiter-Glo
In short: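 Cells in RPMI 1640/10% FBS; compound dilutions in DMSO/media; 48 h, 37° C, 5% CO2; CellTiter-Glo luciferase readout for viability.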

[8] = Liver Microsome Stability Assay (monkey); conditions: monkey liver microsomes, with NADPH, 1.0 uM compound
Method: as §1

[9] = Liver Microsome Stability Assay (rat); conditions: rat liver microsomes, with NADPH, 1.0 uM compound
Method: as §1

[10] = system: PD1-ss+10aa/Gaussia Luciferase; experiment: Dox-Induced PD1-ss-Gluc Assay; assay type: cell-based; conditions: 24 hr Dox induction; 293FRT/TO cells; mean; read-out: 24 hr Dox Inducible PD1ssGluc 293FRT/TO: Mean IC50
In short: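 Flp-In 293 T-REx cells stably carrying a doxycycline-inducible Gaussia luciferase fused to the PD1 signal sequence plus 10 aa were plated the day before. Compound dilutions in DMSO/media containing doxycycline were then added and incubated at 37 °C, 5% CO2. Data for undefined stereochemistry refer to stereoisomer mixtures.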

Row | IC50 [1] | Liver Microsome Stability (Multiple Species): Human - % Remaining after 30 min w/NADPH [2] | IC50 [3] | Liver Microsome Stability (Multiple Species): Mouse - % Remaining after 30 min w/NADPH [4] | EC50 [5] | IC50 [6] | EC50 [7] | Liver Microsome Stability (Multiple Species): Monkey - % Remaining after 30 min w/NADPH [8] | Liver Microsome Stability (Multiple Species): Rat - % Remaining after 30 min w/NADPH [9] | IC50 [10] | SMILES | 24 hr Dox Inducible IL2FLGluc 293FRT/TO: IL2/PD1 [3] | 24 hr Dox Inducible TNFaFLGluc 293FRT/TO: TNF/PD1 [6]
1 | 13.9 µM | 22.6% | 7.09 µM | 29.5% | > 25 µM | > 25 µM | 24.3 µM | 9.66% | 38.8% | 5.21 µM | O=C(Nc1nc([C@H]2CCCN2c2ccccc2)cs1)c1cccn1Cc1ccc(=O)[nH]c1 [Compound C10] | 1.4 | >4.80
2 | > 25 µM | 65.2% | > 25 µM | 52.3% | > 25 µM | > 25 µM | > 25 µM | 76.1% | 83.1% | > 25 µM | O=C(O)CCCCn1cccc1C(=O)Nc1nc([C@H]2CCCN2c2ccccc2)cs1 [Compound C11] | 1 | 
3 | > 25 µM | 75.1% | > 25 µM | 60.4% | > 25 µM | > 25 µM | > 25 µM | 90.9% | 76.3% | > 25 µM | O=C(O)CCn1cccc1C(=O)Nc1nc([C@H]2CCCN2c2ccccc2)cs1 [Compound C12] | 1 | 
4 | > 25 µM | 82.1% | > 25 µM | 64.9% | > 25 µM | > 25 µM | > 25 µM | 81.3% | 87.9% | > 25 µM | O=C(O)CCCn1cccc1C(=O)Nc1nc([C@H]2CCCN2c2ccccc2)cs1 [Compound C13] | 1 | 
5 | > 25 µM | 74.3% | > 25 µM | 57.8% | > 25 µM | > 25 µM | > 25 µM | 90.3% | 78.7% | > 25 µM | O=C(Nc1nc([C@H]2CCCN2c2ccccc2)cs1)c1cccn1CCCc1nnn[nH]1 [Compound C14, (R)-1-(3-(1H-tetrazol-5-yl)propyl)-N-(4-(1-phenylpyrrolidin-2-yl)thiazol-2-yl)-1H-pyrrole-2-carboxamide] | 1 | 
6 | > 25 µM | 29.3% | > 25 µM | 31.7% | > 25 µM | > 25 µM | > 25 µM | 22.4% | 18.3% | > 25 µM | NC(=O)CCn1cccc1C(=O)Nc1nc([C@H]2CCCN2c2ccccc2)cs1 [Compound C15] | 1 | 
7 | 8.93 µM | 8.13% | 6.9 µM | 26.7% | > 25 µM | > 25 µM | > 25 µM | 78.9% | 3.26% | 8.08 µM | O=C(Nc1nc([C@H]2CCCN2c2ccccc2)cs1)c1cccn1CCc1nnn[nH]1 [Compound C16, (R)-1-(2-(1H-tetrazol-5-yl)ethyl)-N-(4-(1-phenylpyrrolidin-2-yl)thiazol-2-yl)-1H-pyrrole-2-carboxamide] | 0.85 | >3.09
8 | > 25 µM | 58.7% | 6.75 µM | 9.27% | > 25 µM | > 25 µM | > 25 µM | 30.9% | 10.3% | 22.3 µM | Cn1cccc1C(=O)Nc1nc([C@H]2CCCN2c2ccccc2)cs1 [Compound C17, (R)-1-methyl-N-(4-(1-phenylpyrrolidin-2-yl)thiazol-2-yl)-1H-pyrrole-2-carboxamide] | 0.3 | >1.12
9 | 17.5 µM | 15.8% | 7.65 µM | 12.7% | > 25 µM | > 25 µM | 24.1 µM | 4.38% | 8.52% | 5.09 µM | COCCCCn1cccc1C(=O)Nc1nc([C@H]2CCCN2c2ccccc2)cs1 [Compound C23, (R)-1-(4-methoxybutyl)-N-(4-(1-phenylpyrrolidin-2-yl)thiazol-2-yl)-1H-pyrrole-2-carboxamide] | 1.5 | >4.91
10 | 0.0387 µM | 63.8% | 0.0719 µM | 62.6% | > 25 µM | 0.266 µM | 1.9 µM | 23.6% | 60.2% | 0.0146 µM | Cc1ccc(N2CCC[C@@H]2c2csc(NC(=O)c3cccn3CC3CCOCC3)n2)cc1 [Compound C53, (R)-1-((tetrahydro-2H-pyran-4-yl)methyl)-N-(4-(1-(p-tolyl)pyrrolidin-2-yl)thiazol-2-yl)-1H-pyrrole-2-carboxamide] | 4.9 | 18.2
11 | 0.272 µM | 77.9% | 0.479 µM | 99.1% | > 25 µM | 1.79 µM | 6.53 µM | 46.8% | 67.6% | 0.132 µM | O=C(Nc1nc([C@H]2CCCN2c2ccc(OC(F)(F)F)cc2)cs1)c1cccn1CC1CCOCC1 [Compound C54, (R)-1-((tetrahydro-2H-pyran-4-yl)methyl)-N-(4-(1-(4-(trifluoromethoxy)phenyl)pyrrolidin-2-yl)thiazol-2-yl)-1H-pyrrole-2-carboxamide] | 3.6 | 13.5

— US20230286973A1, “PROTEIN SECRETION INHIBITORS” (KEZAR LIFE SCIENCES, priority 2020, published 2023)
